The results in this text go back to patent US20220144812A1, “QUINOLINE DERIVATIVES AND THEIR USE FOR THE TREATMENT OF CANCER” (Epizyme, Inc., priority 2019, published 2022).

Each structure is given as a SMILES string.

T1 sequence (Q92793 1084-1701): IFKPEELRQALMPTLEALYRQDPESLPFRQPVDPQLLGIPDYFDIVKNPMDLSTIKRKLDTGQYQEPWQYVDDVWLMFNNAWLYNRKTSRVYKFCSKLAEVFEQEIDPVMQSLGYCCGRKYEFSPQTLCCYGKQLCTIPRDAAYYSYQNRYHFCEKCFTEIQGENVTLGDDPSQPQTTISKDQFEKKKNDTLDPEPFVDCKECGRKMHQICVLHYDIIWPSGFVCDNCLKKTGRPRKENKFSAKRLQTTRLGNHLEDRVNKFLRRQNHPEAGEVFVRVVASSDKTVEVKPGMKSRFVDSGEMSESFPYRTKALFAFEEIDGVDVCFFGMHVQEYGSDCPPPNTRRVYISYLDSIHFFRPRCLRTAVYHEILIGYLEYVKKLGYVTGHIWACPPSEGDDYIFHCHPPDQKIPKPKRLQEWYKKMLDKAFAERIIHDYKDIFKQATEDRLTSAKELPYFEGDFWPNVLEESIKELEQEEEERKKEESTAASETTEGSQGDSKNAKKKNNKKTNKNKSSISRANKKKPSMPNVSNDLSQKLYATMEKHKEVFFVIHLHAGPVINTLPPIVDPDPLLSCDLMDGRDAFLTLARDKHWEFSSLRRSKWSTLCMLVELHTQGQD

One test concerns H3K18Ac in HB-CLS-2 cells. Description: H3K18AC in-cell western (ICW) assay. The test is classed as cell-based. The note with it: H3K18Ac in-cell western, HB-CLS-2 cells; read-out: CREBBP ICW IC50. From the text: The following example describes methods and materials relating to an H3K18AC in-cell western assay. IC50 values (micromolar (μM)) are summarized in Table 1, Table 2, and Table 3 under the column labeled: “CREBBP ICW IC50 (micromolar).”
MATERIALS: HB-CLS-2 cell line, DMEM: Ham's F12 medium (1:1 mixture), penicillin-streptomycin, heat inactivated fetal bovine serum, D-PBS, Odyssey blocking buffer, 800CW goat anti-rabbit IgG (H+L) antibody, Licor Odyssey CLx Infrared Scanner, H3K18Ac rabbit monoclonal antibody. DRAQS fluorescent probe solution (5 mM), and 100% methanol were commercially available. HB-CLS-2 adherent cells were maintained in complete growth medium (DMEM: Ham's F12 supplemented with 10% v/v heat inactivated fetal bovine serum) and cultured at 37° C. under 5% CO2.
METHOD: Cell Treatment, ICW for detection of H3K18Ac and DNA content. HB-CLS-2 cells were seeded in assay medium (DMEM: Ham's F12 supplemented with 10% v/v heat inactivated fetal bovine serum and 1% Penicillin/Streptomycin) at a concentration of 80,000 cells per mL in a Poly-D-Lysine coated 384-well culture plates at 50 μL per well. Plates were incubated at room temperature for 30 minutes and then incubated at 37° C., 5% CO2 for additional 16-24 hours. Compounds and DMSO normalization were then added directly to the plates using a D300 Digital Dispenser and returned to the incubator at 37° C., 5% CO2 for 2 hrs. After the incubation, the contents of the plates were discarded into the appropriate waste stream and blotted on laboratory tissue to remove residual liquid. 90 μL per well of 100% ice cold methanol was added to the plates and incubated at room temperature for 15 minutes. Then methanol was then discarded into the appropriate waste stream and the plates again blotted on laboratory tissue to remove residual liquid. Plates were transferred to a Biotek 405 plate washer and washed 3 times with 100 μL per well of wash buffer (1X PBS containing 0.1% Triton X-100 (v/v)). Next, 50 μL per well of Odyssey blocking buffer with 0.1% Tween 20 (v/v) was added to each plate and incubated for 1 hour at room temperature. Blocking buffer was removed and 20 μL of primary antibody were added (α-H3K18Ac diluted 1:800 in Odyssey buffer with 0.1% Tween 20 (v/v)) and plates were incubated overnight (16 hours) at 4° C. Plates were washed 5 times with 100 μL per well of wash buffer. Next 20 μL per well of secondary antibody was added (1:400 800CW goat anti-rabbit IgG (H+L) antibody, 1:2000 DRAQ5 in Odyssey buffer with 0.1% Tween 20 (v/v)) and incubated for 1 hour at room temperature. The plates were washed 3 times with 100 μL per well wash buffer then 3 times with 100 μL per well of water. Plates were allowed to dry at room temperature then imaged on the Licor Odyssey CLx machine which measured integrated intensity at 700 nm and 800 nm wavelengths. Both 700 and 800 channels were scanned.
The IC50 is the concentration that gives 50% inhibition. As for `CCn1ncc(CN(C)C(=O)c2nc(-c3cnn(CCN(C)C(=O)OC(C)(C)C)c3)nc3ccc(Cl)cc23)c1C` [Compound 197], the IC50 worked out at 20 µM. Regarding `CCn1nc(C)c(CN(C)C(=O)c2nc(-c3ccccc3Cl)nc3ccc(Cl)cc23)c1C` [Compound 201], the IC50 turned out to be 20 µM. On to `CCn1ncc(CN(C)C(=O)c2cc(-c3cn(C)c(C)n3)nc3cc(Cl)ccc23)c1C` [Compound 203], for which the half-inhibitory concentration (IC50) amounted to 20 µM. In the case of `CCn1ncc(CN(C)C(=O)c2nc(-c3cnn(CC4CCCN4)c3)nc3ccc(Cl)cc23)c1C` (stereo not shown) [Compound 204], the IC50 was 20 µM. Consider `CCn1ncc(CN(C)C(=O)c2cc(N3CCN(C(=O)OC(C)(C)C)CC3)nc3ccc(Cl)cc23)c1C` [Compound 205], for which the IC50 amounted to 20 µM. For `CCn1ncc(CN(C)C(=O)c2nc(C3CCCN3)nc3ccc(Cl)cc23)c1C` (stereo not shown) [Compound 207], the half-inhibitory concentration (IC50) was found to be 20 µM.

With `CCn1ncc(CN(C)C(=O)c2cc(N3CCN(C)CC3)nc3ccc(Cl)cc23)c1C` [Compound 214], the half-maximal inhibitory concentration (IC50) worked out at 20 µM. On the same count and under the same terms, for `CCn1ncc(CN(C)C(=O)c2nc(-c3cnn(CCC(O)CNC)c3)nc3ccc(Cl)cc23)c1C` (stereo not shown) [Compound 223] the value was 20 µM; for `CCn1ncc(CN(C)C(=O)c2nc(-c3ccc4ccn(C(=O)OC(C)(C)C)c4c3)nc3ccc(Cl)cc23)c1C` [Compound 234], 20 µM; for `CCn1ncc(CN(C)C(=O)c2cc(N3CCN(C(C)=O)CC3)nc3ccc(Cl)cc23)c1C` [Compound 244], 20 µM. In the case of `CCn1ncc(CN(C)C(=O)c2cc(N3CCNCC3)nc3ccc(Cl)cc23)c1C` [Compound 246], the IC50 amounted to 20 µM. On to `CCn1ncc(CN(C)C(=O)c2nc(-c3cnn(CCC(O)CN4CCCC4)c3)nc3ccc(Cl)cc23)c1C` (stereo not shown) [Compound 249], for which the IC50 stood at 20 µM. In the case of `CCn1ncc(CN(C)C(=O)c2nc(-c3ccc(OCCN(C)C(=O)OC(C)(C)C)c(F)c3)nc3ccc(Cl)cc23)c1C` [Compound 251], the IC50 came to 20 µM. As to `CCn1ncc(CN(C)C(=O)c2nc(-c3ccc(OCCNC(=O)OC(C)(C)C)c(F)c3)nc3ccc(Cl)cc23)c1C` [Compound 252], the IC50 turned out to be 20 µM.

Take `CCn1ncc(CN(C)C(=O)c2cc(-c3ccc(N(C)CCN(C)C)c(C)n3)nc3ccc(Cl)cc23)c1C` [Compound 420]: the IC50 was 0.74 µM.

On to `CCn1ncc(CN(C)C(=O)c2nc(-c3cc(C(=O)NC4CC4)n(C)n3)nc3ccc(Cl)cc23)c1C` [Compound 421], for which the 50% inhibitory concentration (IC50) is 0.26 µM.

Consider `CCn1ncc(CN(C)C(=O)c2nc(-c3cc(N)c4nc[nH]c4c3)nc3ccc(Cl)cc23)c1C` [Compound 422], for which the IC50 was found to be 0.6 µM. `CCc1cc(CNC)cc(-c2nc(C(=O)N(C)Cc3cnn(CC)c3C)c3cc(Cl)ccc3n2)c1` [Compound 423]: the half-maximal inhibitory concentration (IC50) is 0.53 µM. In the case of `CCn1ncc(CN(C)C(=O)c2cc(-c3cnc(NCCNC)cn3)nc3ccc(Cl)cc23)c1C` [Compound 424], the IC50 worked out at 0.4 µM. `CCc1nc(-c2cc(C(=O)N(C)Cc3cnn(CC)c3C)c3cc(Cl)ccc3n2)ccc1NCCNC` [Compound 425]: the half-inhibitory concentration (IC50) came out at 0.15 µM. For `CCn1ncc(CN(C)C(=O)c2cc(-c3ccc(NCCNC)c(C)n3)nc3ccc(COC)cc23)c1C` [Compound 427], the IC50 turned out to be 0.19 µM. Still for that read-out and setting: for `CCn1ncc(CN(C)C(=O)c2nc(-c3ccc(OC4CCNCC4)c(OC)c3)nc3ccc(Cl)cc23)c1C` [Compound 428] the value was 1.4 µM. On to `CCn1ncc(CN(C)C(=O)c2cc(-c3ccc(NCCNC)c(C)n3)nc3ccc(C)cc23)c1C` [Compound 429], for which the IC50 came out at 0.16 µM. Consider `CCn1ncc(CN(C)C(=O)c2cc(-c3ccc(OCCCNC)c(C)n3)nc3ccc(Cl)cc23)c1C` [Compound 430], for which the IC50 was 0.69 µM. Take `CCn1ncc(CN(C)C(=O)c2cc(-c3ccc(OCCNC(C)=O)c(C)n3)nc3ccc(Cl)cc23)c1C` [Compound 431]: the half-inhibitory concentration (IC50) amounted to 0.84 µM.

Still in this test, the particulars now being: H3K18Ac in-cell western; read-out: CREBBP ICW IC50.
With `CCn1ncc(CN(C)C(=O)c2nc(N3CCCNCC3)nc3ccc(Cl)cc23)c1C` [Compound 187], the IC50 is 20 µM. Regarding `CCn1ncc(CN(C)C(=O)c2nc(-c3cnn(CCCN(C)C(=O)OC(C)(C)C)c3)nc3ccc(Cl)cc23)c1C` [Compound 188], the IC50 turned out to be 20 µM.

On to `CCn1ncc(CN(C)C(=O)c2nc(-c3cnn(CCCNC(=O)OC(C)(C)C)c3)nc3ccc(Cl)cc23)c1C` [Compound 189], for which the IC50 worked out at 20 µM. Consider `CCn1ncc(CN(C)C(=O)c2nc(-c3cccc(Cl)c3)nc3cc(N4CCOCC4)ccc23)c1C` [Compound 191], for which the IC50 is 20 µM. Regarding `CCn1ncc(CN(C)C(=O)c2nc(N3CCN(C(C)=O)CC3)nc3ccc(Cl)cc23)c1C` [Compound 195], the IC50 was found to be 20 µM.

Another test has as its target T1, CREBBP (1084-1701) (Homo sapiens, UniProt Q92793).
T1 construct: measured in the following biochemical assay using CREBBP (1084-1701); purchased
Description: Biochemical assay for CREBBP (1084-1701), SAMDI. The note with it: SAMDI, read-out: CREBBP Biochemistry IC50. The source says:
The following example describes materials and methods relating to a biochemical assay for CREBBP (1084-1701). IC50 values (micromolar (μM)) are summarized in Table 1, Table 2, and Table 3 under the column labeled: “CREBBP Biochemistry IC50 (micromolar).”
MATERIALS: Reagents 1M Tris pH 8.0, Tween 20 10%, DTT, bovine serum gelatin (BSG) 2%, Peptide #233 (biotin-H3 11-25, K14R, K23R), Acetyl-CoA, CREBBP (1084-1701), formic acid (100%), and sodium bicarbonate were commercially available.
METHODS: The effect of compounds was measured in the following biochemical assay using CREBBP (1084-1701). Enzyme mix 30 μL per well was added using a Multi-drop to wells of prepared Compound Stock plate. The enzyme was incubated in the Compound Stock plate for 30 minutes at room temperature. Substrate mix, 20 μL per well, was added to Compound Stock plate using a Multi-drop. The plate was covered and incubate 30 minutes at room temperature. The reaction was stopped with addition of 5 μL per well of 5% formic acid using a Multi-drop. The plate was Incubated for 30 minutes at room temperature. The reaction mixture was neutralized with addition of 5 μL per well of 10% sodium bicarbonate using a Multi-drop. The plate was Incubated for 35 minutes at room temperature. The reaction mixture was Transferred 2.5 μL per well to a SAMDI biochip. The plate was Incubated for 60 minutes at room temperature. The samples were washed, dried, and matrix applied to SAMDI biochip. The SAMDI biochip was then read on the mass spectrometer.
With `CCn1ncc(CN(C)C(=O)c2cc(-c3ccccc3Cl)nc3cc(F)ccc23)c1C` [Compound 253], the IC50 is 90 µM.

Take `CCn1ncc(CN(C)C(=O)c2nc(-c3cccc(Cl)c3)nc3ccc(Cl)c(C)c23)c1C` [Compound 256]: the concentration for half-maximal inhibition (IC50) was 1.4 µM. Consider `CCn1ncc(CN(C)C(=O)c2cc(-c3cn(C)cn3)nc3cc(Cl)ccc23)c1C` [Compound 257], for which the IC50 stood at 120 µM. On to `CCn1ncc(CN(C)C(=O)c2nc(-c3ccccn3)nc3ccc(Cl)cc23)c1C` [Compound 262], for which the IC50 was 5.4 µM. Take `CCn1ncc(CN(C)C(=O)c2cc(-c3ccccc3Cl)nc3cc(C)ccc23)c1C` [Compound 263]: the IC50 stood at 87 µM.

On to `Cc1c(CN(C)C(=O)c2cc(-c3cccc(Cl)c3)nc3ccccc23)cnn1C` [Compound 265], for which the half-maximal inhibitory concentration (IC50) worked out at 195 µM. Turning to `CCn1ncc(CN(C)C(=O)c2cc(-c3ccccc3Cl)nc3c(Cl)cccc23)c1C` [Compound 269], the IC50 worked out at 26 µM. Same read-out and setting: for `CCn1ncc(CN(C)C(=O)c2cc(-c3ccccc3Cl)nc3cc(Cl)ccc23)c1C` [Compound 270] the value was 25 µM; for `CN(Cc1cc2n(n1)CCC2)C(=O)c1cc(-c2cccc(Cl)c2)nc2ccc(Cl)cc12` [Compound 271], 14 µM; for `CCn1ncc(CN(C)C(=O)c2cc(-c3ccccc3)nc3ccc(OC)cc23)c1C` [Compound 272], 66 µM.

Take `CCn1ncc(CN(C)C(=O)c2cc(-c3cccc(Cl)c3)nc3ccc(OC)cc23)c1C` [Compound 273]: the IC50 stood at 19 µM.

For the molecule `CCc1ncc(CN(C)C(=O)c2nc(-c3cccc(Cl)c3Cl)nc3ccc(Cl)cc23)n1C` [Compound 274], the IC50 was determined as 0.0032 µM. Same read-out and setting: for `CCn1ncc(CN(C)C(=O)c2nc(-c3cccc(Cl)c3)nc3ccc(C)cc23)c1C` [Compound 275] the value was 0.014 µM; for `CCn1ncc(CN(C)C(=O)c2nc(-c3ncccn3)nc3ccc(Cl)cc23)c1C` [Compound 278], 132 µM; for `CCn1ncc(CN(C)C(=O)c2nc(-c3cccc(C(F)(F)F)c3)nc3ccc(Cl)cc23)c1C` [Compound 280], 0.27 µM. For `CCn1ncc(CN(C)C(=O)c2cc(-c3cnn(C)c3)nc3ccc(Cl)cc23)c1C` [Compound 289], the concentration for half-maximal inhibition (IC50) came out at 26 µM.
